Data on 26 molecules can be found in patent US11912686B2 (Gilead Sciences, Inc., priority 2020, dated 2024).

The structures appear in SMILES notation.

The target in this experiment is human LPAR1 (Homo sapiens (Human), UniProt Q92633). The experiment is described as follows: LPAR1 intracellular calcium mobilization assay (antagonist mode, FLIPR). It counts as cell-based. To be noted: CHO-K1 EDG2 cells expressing human LPAR1, LPA 18:2 at EC80 (100 nM), test compound 0.5 nM to 10 μM.
human LPAR1, sequence (Q92633 whole entry): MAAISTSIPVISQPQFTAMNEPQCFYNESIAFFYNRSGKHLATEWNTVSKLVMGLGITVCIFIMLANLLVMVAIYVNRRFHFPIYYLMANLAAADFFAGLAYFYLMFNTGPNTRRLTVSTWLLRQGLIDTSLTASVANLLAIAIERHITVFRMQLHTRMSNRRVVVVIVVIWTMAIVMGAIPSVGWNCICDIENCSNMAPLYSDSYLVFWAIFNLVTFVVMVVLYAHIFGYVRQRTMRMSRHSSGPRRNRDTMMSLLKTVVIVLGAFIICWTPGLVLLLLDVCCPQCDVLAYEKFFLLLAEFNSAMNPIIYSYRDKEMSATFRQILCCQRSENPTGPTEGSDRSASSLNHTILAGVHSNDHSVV
In general, EC50 refers to the concentration at which the effect is half-maximal. Take `C[C@@H](OC(=O)Nc1c(-c2ccc(NC(=O)c3cnc(C4CC4)o3)cn2)nnn1C)c1cc(F)cnc1F` [Compound 280, (R)-1-(2,5-difluoropyridin-3-yl)ethyl (4-(5-(2-cyclopropyloxazole-5-carboxamido)pyridin-2-yl)-1-methyl-1H-1,2,3-triazol-5-yl)carbamate]: the concentration giving a half-maximal response (EC50) was found to be 98.7 nM.
Under `COc1cc(C(=O)Nc2ccc(-c3nnn(C)c3NC(=O)O[C@H](C)c3cc(F)cnc3F)nc2)on1` [Compound 281, (R)-1-(2,5-difluoropyridin-3-yl)ethyl (4-(5-(3-methoxyisoxazole-5-carboxamido)pyridin-2-yl)-1-methyl-1H-1,2,3-triazol-5-yl)carbamate] stands 86.6 nM; under `C[C@@H](OC(=O)Nc1c(-c2ccc(NC(=O)c3cnc(N(C)C)nc3)cn2)nnn1C)c1cc(F)cnc1F` [Compound 282, (R)-1-(2,5-difluoropyridin-3-yl)ethyl (4-(5-(2-(dimethylamino)pyrimidine-5-carboxamido)pyridin-2-yl)-1-methyl-1H-1,2,3-triazol-5-yl)carbamate], 1190 nM.
For `C[C@@H](OC(=O)Nc1c(-c2ccc(NC(=O)c3cnc(C4CC4)nc3)cn2)nnn1C)c1cc(F)cnc1F` [Compound 283, (R)-1-(2,5-difluoropyridin-3-yl)ethyl (4-(5-(2-cyclopropylpyrimidine-5-carboxamido)pyridin-2-yl)-1-methyl-1H-1,2,3-triazol-5-yl)carbamate], the half-maximal effective concentration (EC50) was found to be 82.4 nM.
Under `C[C@@H](OC(=O)Nc1c(-c2ccc(NC(=O)c3cnc(N4CCOCC4)nc3)cn2)nnn1C)c1cc(F)cnc1F` [Compound 284, (R)-1-(2,5-difluoropyridin-3-yl)ethyl (1-methyl-4-(5-(2-morpholinopyrimidine-5-carboxamido)pyridin-2-yl)-1H-1,2,3-triazol-5-yl)carbamate] stands 908 nM; under `C[C@@H](OC(=O)Nc1c(-c2ncc(NC(=O)[C@]3(C#N)C[C@H]3C(F)F)cn2)nnn1C)c1cc(F)cnc1Cl` [Compound 286, (R)-1-(2-chloro-5-fluoropyridin-3-yl)ethyl (4-(5-((1R,2R)-1-cyano-2-(difluoromethyl)cyclopropane-1-carboxamido)pyrimidin-2-yl)-1-methyl-1H-1,2,3-triazol-5-yl)carbamate], 104 nM; under `C[C@@H](OC(=O)Nc1c(-c2ncc(NC(=O)[C@@]3(C#N)C[C@@H]3C(F)F)cn2)nnn1C)c1cc(F)cnc1Cl` [Compound 287, (R)-1-(2-chloro-5-fluoropyridin-3-yl)ethyl (4-(5-((1S,2S)-1-cyano-2-(difluoromethyl)cyclopropane-1-carboxamido)pyrimidin-2-yl)-1-methyl-1H-1,2,3-triazol-5-yl)carbamate], 1430 nM.
As for `C[C@@H](OC(=O)Nc1c(-c2ccc(NC(=O)c3ccc(C(F)(F)F)nc3)cn2)nnn1C)c1cc(F)cnc1Cl` [Compound 288, (R)-1-(2-chloro-5-fluoropyridin-3-yl)ethyl (1-methyl-4-(5-(6-(trifluoromethyl)nicotinamido)pyridin-2-yl)-1H-1,2,3-triazol-5-yl)carbamate], the EC50 is 33.5 nM.
On to `C[C@@H](OC(=O)Nc1c(-c2ccc(NC(=O)c3cnc(C(F)F)nc3)cn2)nnn1C)c1cc(F)cnc1Cl` [Compound 289, (R)-1-(2-chloro-5-fluoropyridin-3-yl)ethyl (4-(5-(2-(difluoromethyl)pyrimidine-5-carboxamido)pyridin-2-yl)-1-methyl-1H-1,2,3-triazol-5-yl)carbamate], for which the EC50 stood at 21.5 nM.
Under `C[C@@H](OC(=O)Nc1c(-c2ccc(NC(=O)c3cnc(C(F)(F)F)nc3)cn2)nnn1C)c1cc(F)cnc1Cl` [Compound 290, (R)-1-(2-chloro-5-fluoropyridin-3-yl)ethyl (1-methyl-4-(5-(2-(trifluoromethyl)pyrimidine-5-carboxamido)pyridin-2-yl)-1H-1,2,3-triazol-5-yl)carbamate] stands 10.9 nM; under `C[C@@H](OC(=O)Nc1c(-c2ccc(NC(=O)C3(C)CC(F)(F)C3)cn2)nnn1C)c1cccnc1F` [Compound 291, (R)-1-(2-fluoropyridin-3-yl)ethyl (4-(5-(3,3-difluoro-1-methylcyclobutane-1-carboxamido)pyridin-2-yl)-1-methyl-1H-1,2,3-triazol-5-yl)carbamate], 157 nM.
Under `C[C@@H](OC(=O)Nc1c(-c2ccc(NC(=O)c3ccc(Cl)nc3)cn2)nnn1C)c1cccnc1F` [Compound 292, (R)-1-(2-fluoropyridin-3-yl)ethyl (4-(5-(6-chloronicotinamido)pyridin-2-yl)-1-methyl-1H-1,2,3-triazol-5-yl)carbamate] stands 143 nM; under `C[C@@H](OC(=O)Nc1c(-c2ccc(NC(=O)c3ccnc(F)c3F)cn2)nnn1C)c1cccnc1F` [Compound 294, (R)-1-(2-fluoropyridin-3-yl)ethyl (4-(5-(2,3-difluoroisonicotinamido)pyridin-2-yl)-1-methyl-1H-1,2,3-triazol-5-yl)carbamate], 238 nM; under `C[C@@H](OC(=O)Nc1c(-c2ccc(NC(=O)c3ccc(C(F)F)nc3)cn2)nnn1C)c1cccnc1F` [Compound 295, (R)-1-(2-fluoropyridin-3-yl)ethyl (4-(5-(6-(difluoromethyl)nicotinamido)pyridin-2-yl)-1-methyl-1H-1,2,3-triazol-5-yl)carbamate], 391 nM.
Regarding `C[C@@H](OC(=O)Nc1c(-c2ccc(NC(=O)c3ccc(C(F)(F)F)nc3)cn2)nnn1C)c1cccnc1F` [Compound 296, (R)-1-(2-fluoropyridin-3-yl)ethyl (1-methyl-4-(5-(6-(trifluoromethyl)nicotinamido)pyridin-2-yl)-1H-1,2,3-triazol-5-yl)carbamate], the EC50 is 46.9 nM.
Regarding `C[C@@H](OC(=O)Nc1c(-c2ccc(NC(=O)C3(C#N)CNC3)cn2)nnn1C)c1cc(F)cnc1F` [Compound 297, (R)-1-(2,5-difluoropyridin-3-yl)ethyl (4-(5-(3-cyanoazetidine-3-carboxamido)pyridin-2-yl)-1-methyl-1H-1,2,3-triazol-5-yl)carbamate], the 50% effective concentration (EC50) turned out to be 354 nM.
Under `C[C@@H](OC(=O)Nc1c(-c2ccc(NC(=O)C3(C(F)F)CNC3)cn2)nnn1C)c1cc(F)cnc1F` [Compound 298, (R)-1-(2,5-difluoropyridin-3-yl)ethyl (4-(5-(3-(difluoromethyl)azetidine-3-carboxamido)pyridin-2-yl)-1-methyl-1H-1,2,3-triazol-5-yl)carbamate] stands 1250 nM.
Under `C[C@@H](OC(=O)Nc1c(-c2ccc(NC(=O)C3(C#N)CCNCC3)cn2)nnn1C)c1cc(F)cnc1F` [Compound 299, (R)-1-(2,5-difluoropyridin-3-yl)ethyl (4-(5-(4-cyanopiperidine-4-carboxamido)pyridin-2-yl)-1-methyl-1H-1,2,3-triazol-5-yl)carbamate] stands 4990 nM.
Under `C[C@@H](OC(=O)Nc1c(-c2ccc(NC(=O)C3(CN)CC3(F)F)cn2)nnn1C)c1cc(F)cnc1F` (stereo partly drawn) [Compound 300, (R)-1-(2,5-difluoropyridin-3-yl)ethyl (4-(5-(1-(aminomethyl)-2,2-difluorocyclopropane-1-carboxamido)pyridin-2-yl)-1-methyl-1H-1,2,3-triazol-5-yl)carbamate] stands 961 nM; under `C[C@@H](OC(=O)Nc1c(-c2ccc(NC(=O)C3(CN)CC(F)(F)C3)cn2)nnn1C)c1cc(F)cnc1F` [Compound 301, (R)-1-(2,5-difluoropyridin-3-yl)ethyl (4-(5-(1-(aminomethyl)-3,3-difluorocyclobutane-1-carboxamido)pyridin-2-yl)-1-methyl-1H-1,2,3-triazol-5-yl)carbamate], 66.9 nM; under `C[C@@H](OC(=O)Nc1c(-c2ccc(NC(=O)C3(C#N)CCNC3)cn2)nnn1C)c1cc(F)cnc1F` (stereo partly drawn) [Compound 302, (R)-1-(2,5-difluoropyridin-3-yl)ethyl (4-(5-(3-cyanopyrrolidine-3-carboxamido)pyridin-2-yl)-1-methyl-1H-1,2,3-triazol-5-yl)carbamate], 669 nM.
For the molecule `C[C@@H](OC(=O)Nc1c(-c2ccc(NC(=O)C3(CN)CCC3)cn2)nnn1C)c1cc(F)cnc1F` [Compound 303, (R)-1-(2,5-difluoropyridin-3-yl)ethyl (4-(5-(1-(aminomethyl)cyclobutane-1-carboxamido)pyridin-2-yl)-1-methyl-1H-1,2,3-triazol-5-yl)carbamate], the EC50 was 565 nM.
Under `C[C@@H](OC(=O)Nc1c(-c2ccc(NC(=O)C3(CN)CC(F)(F)C3)cn2)nnn1C)c1cc(F)cnc1Cl` [Compound 304, (R)-1-(2-chloro-5-fluoropyridin-3-yl)ethyl (4-(5-(1-(aminomethyl)-3,3-difluorocyclobutane-1-carboxamido)pyridin-2-yl)-1-methyl-1H-1,2,3-triazol-5-yl)carbamate] stands 46.4 nM; under `C[C@@H](OC(=O)Nc1c(-c2ccc(NC(=O)C3(C#N)CN(CC(F)(F)F)C3)cn2)nnn1C)c1cc(F)cnc1F` [Compound 305, (R)-1-(2,5-difluoropyridin-3-yl)ethyl (4-(5-(3-cyano-1-(2,2,2-trifluoroethyl)azetidine-3-carboxamido)pyridin-2-yl)-1-methyl-1H-1,2,3-triazol-5-yl)carbamate], 1000 nM.
Under `C[C@@H](OC(=O)Nc1c(-c2ccc(NC(=O)[C@H]3C[C@H](NCC(F)(F)F)C3)cn2)nnn1C)c1cccnc1Cl` [Compound 306, (R)-1-(2-chloropyridin-3-yl)ethyl (1-methyl-4-(5-((1r,3R)-3-((2,2,2-trifluoroethyl)amino)cyclobutane-1-carboxamido)pyridin-2-yl)-1H-1,2,3-triazol-5-yl)carbamate] stands 99.7 nM.
As to `C[C@@H](OC(=O)Nc1c(-c2ccc(NC(=O)[C@H]3[C@@H]4CN(CC(F)(F)F)C[C@@H]43)cn2)nnn1C)c1cccnc1Cl` [Compound 308, (R)-1-(2-chloropyridin-3-yl)ethyl (1-methyl-4-(5-((1R,5S,6r)-3-(2,2,2-trifluoroethyl)-3-azabicyclo[3.1.0]hexane-6-carboxamido)pyridin-2-yl)-1H-1,2,3-triazol-5-yl)carbamate], the EC50 came to 337 nM.
